These results are taken from patent publication US20030203373A1 (priority 2002, published 2003).

“And” between values parts separate entries of the source, which are not always exact repeats. Equal entries are not always repeated. Where two headings read alike, the source gives them in different places. Square brackets hold non-standard residues; d marks the D form. Ends that are not written are not given here. Peptide text beside a SMILES is read from it. pGlu = O=C1CC[C@@H](C(=O)O)N1

This test addresses T1, ACE from pig kidney (Sus scrofa, UniProt F1RRW5).
T1 construct: 1 mU ACE from pig kidney (EC 3.4.15.1 (Sigma)); purchased Sigma; host or cells: pig kidney (tissue-derived enzyme)
T1 sequence (F1RRW5 34-1309): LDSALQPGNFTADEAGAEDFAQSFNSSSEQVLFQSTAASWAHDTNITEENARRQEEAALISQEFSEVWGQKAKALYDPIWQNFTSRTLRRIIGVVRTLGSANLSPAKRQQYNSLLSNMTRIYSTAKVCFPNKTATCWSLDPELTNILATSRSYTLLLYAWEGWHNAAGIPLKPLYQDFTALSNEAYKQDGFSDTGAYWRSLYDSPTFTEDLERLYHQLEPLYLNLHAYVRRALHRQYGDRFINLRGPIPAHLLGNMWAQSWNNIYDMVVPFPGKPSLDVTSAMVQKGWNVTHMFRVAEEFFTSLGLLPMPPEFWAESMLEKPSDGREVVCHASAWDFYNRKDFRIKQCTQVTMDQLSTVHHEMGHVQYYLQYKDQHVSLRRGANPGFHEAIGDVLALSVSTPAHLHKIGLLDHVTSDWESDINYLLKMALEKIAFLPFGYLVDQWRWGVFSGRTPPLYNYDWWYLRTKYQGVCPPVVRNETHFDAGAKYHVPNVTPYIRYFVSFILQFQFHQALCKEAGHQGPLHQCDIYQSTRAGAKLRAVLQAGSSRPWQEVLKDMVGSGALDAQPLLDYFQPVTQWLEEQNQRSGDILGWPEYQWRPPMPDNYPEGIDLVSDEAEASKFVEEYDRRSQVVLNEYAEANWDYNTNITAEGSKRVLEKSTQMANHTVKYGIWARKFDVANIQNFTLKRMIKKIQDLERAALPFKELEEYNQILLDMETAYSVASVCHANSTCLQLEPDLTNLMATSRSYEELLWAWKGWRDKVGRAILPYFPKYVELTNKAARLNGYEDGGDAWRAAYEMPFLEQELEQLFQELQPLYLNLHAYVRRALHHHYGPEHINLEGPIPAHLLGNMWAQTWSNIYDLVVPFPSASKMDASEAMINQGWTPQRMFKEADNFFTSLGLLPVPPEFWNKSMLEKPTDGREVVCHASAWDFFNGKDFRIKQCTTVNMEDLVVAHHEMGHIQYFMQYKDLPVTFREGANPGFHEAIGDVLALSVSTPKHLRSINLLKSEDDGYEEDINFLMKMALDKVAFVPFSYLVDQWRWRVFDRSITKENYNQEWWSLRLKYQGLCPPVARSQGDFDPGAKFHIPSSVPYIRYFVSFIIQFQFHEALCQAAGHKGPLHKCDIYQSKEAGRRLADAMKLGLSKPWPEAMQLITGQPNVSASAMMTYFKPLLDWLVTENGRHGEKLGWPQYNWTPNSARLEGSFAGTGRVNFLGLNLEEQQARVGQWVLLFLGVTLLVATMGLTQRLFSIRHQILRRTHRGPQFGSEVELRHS
The test can be described thus: biochemical. The class given is biochemical. An excerpt:
These peptides were investigated for their inhibitory effect using an in vitro-ACE-inhibitor-assay with an angiotensin-converting-enzyme derived from pig kidney. Hippuryl-histidyl-leucin was used as a substrate. […] A concrete experimental description is given below.
The principle of the ACE-inhibition-assay was established by Chejung, H. S., Cushman, D. W.: “Inhibition of homogenous angiotensin converting enzyme of rabbit lung by synthetic venom peptides of Bothrops jararaca.” in Biochimica et Biophysica Acta 293, 451-563 (1973).
The assay was performed in 96 well HTRF-plates (Packard). The concentrations used for each well were:
1 mU ACE from pig kidney (EC 3.4.15.1 (Sigma)) in 30 μl of assay buffer (25 mM HEPES; 0,3 M NaCl, pH 8,2) and 20 μl inhibitor dissolved in assay buffer (0,35-200 μM). The reaction was started by adding 50 μl of 2 mM hippuryl-histidyl-leucin (Sigma) in assay buffer. The reaction was performed at room temperature (22° C.) for 30 minutes and terminated by adding 50 μl of 2 M NaOH. Afterwards 50 μl of 0,5% ortho-phtalaldehyd (Sigma) in methanol were added, 5 minutes later followed by 50 μl of 2,5 M HCl-solution to stabilize the developed fluorescence product.
The results were used to calculate the % inhibition. The IC50-values were determined graphically from a curve showing the dose-reaction ratio.
In order to minimize errors due to time-dependent differences, all pipetting steps were performed in a precise time schedule.

Where [1] appears, read: ACE from pig kidney, determined graphically, read-out: IC50-value (ACE inhibition).
The mark [2] stands for this setting: inhibitor 0.39 μM, replicates A-D.
Setting [3] is: inhibitor 0.39 μM, replicates A-D, 0.39 µM.
Where [4] appears, read: inhibitor 0.78125 μM, replicates A-D.
[5] abbreviates: inhibitor 0.78125 μM, replicates A-D, 0.78125 µM.
[6] abbreviates: inhibitor 1.5625 μM, replicates A-D.
Setting [7] is: inhibitor 1.5625 μM, replicates A-D, 1.5625 µM.
The mark [8] stands for this setting: inhibitor 3.125 μM, replicates A-D.
Setting [9] is: inhibitor 3.125 μM, replicates A-D, 3.125 µM.
Where [10] appears, read: inhibitor 6.25 μM, replicates A-D.
[11] abbreviates: inhibitor 6.25 μM, replicates A-D, 6.25 µM.
Where [12] appears, read: inhibitor 12.5 μM, replicates A-D.
The mark [13] stands for this setting: inhibitor 12.5 μM, replicates A-D, 12.5 µM.
[14] abbreviates: inhibitor 25 μM, replicates A-D.
[15] abbreviates: inhibitor 25 μM, replicates A-D, 25 µM.
Where [16] appears, read: inhibitor 50 μM, replicates A-D.
Setting [17] is: inhibitor 50 μM, replicates A-D, 50 µM.
[18] abbreviates: inhibitor 100 μM, replicates A-D.
[19] abbreviates: inhibitor 100 μM, replicates A-D, 100 µM.
Where [20] appears, read: inhibitor 200 μM, replicates A-D.
The mark [21] stands for this setting: inhibitor 200 μM, replicates A-D, 200 µM.

A word on the IC50: it is the point on the concentration scale where inhibition reaches its midpoint. The inhibition is how much of the control response was suppressed. A low value points to little suppression. On to AGAALSPLPEVPP [Peptide S543], for which, under setting [1], the IC50 was 25 µM. Moreover, the “fluorescence reading (ACE Inhibitor Assay)” value was 959059 and 985299 and 971597 and 996656 under setting [2]; 946496 and 913444 and 925926 and 981909 under setting [4]; 923507 and 888699 and 915925 and 980940 under setting [6]; 868636 and 880388 and 856283 and 938801 under setting [8]; 816251 and 788199 and 773151 and 833135 under setting [10]; 683603 and 714973 and 720213 and 700323 under setting [12]. Besides, the “fluorescence reading (ACE Inhibitor Assay)” value under setting [14] is 519515 and 531562 and 515233 and 534895; the “fluorescence reading (ACE Inhibitor Assay)” value under setting [16] was 362416 and 357767 and 358975 and 367216; the “fluorescence reading (ACE Inhibitor Assay)” value under setting [18] is 211437 and 206169 and 209393 and 219372; the “fluorescence reading (ACE Inhibitor Assay)” value under setting [20] is 107628 and 110019 and 108841 and 111945. Further, at 0.39 µM the inhibition under setting [2] was 7.74%. Also, the “% inhibition (ACE Inhibitor Assay)” value runs as follows: under setting [3], 5.2% and 6.53% and 4.1%; under setting [5], 8.95% and 12.15% and 10.945% and 5.53%; under setting [7], 11.18% and 14.54% and 11.9% and 5.62%; under setting [9], 15.35% and 17.68% and 9.7%; under setting [11], 24.26% and 25.72% and 19.92%; under setting [13], 31.35% and 30.84% and 32.76%. The “% inhibition (ACE Inhibitor Assay)” value under setting [15] was 49.09% and 50.66% and 48.76%; the “% inhibition (ACE Inhibitor Assay)” value under setting [17] was 65.9% and 65.78% and 64.98%; the “% inhibition (ACE Inhibitor Assay)” value under setting [19] is 80.56% and 80.25% and 79.28%; the “% inhibition (ACE Inhibitor Assay)” value under setting [21] was 89.95% and 89.97% and 89.67%. The same compound came in with an inhibition at 3.125 µM under setting [8] of 16.5%. This compound also had an inhibition at 6.25 µM under setting [10] of 21.6%. This compound yielded an inhibition at 12.5 µM under setting [12] of 34.4%. Moreover, under setting [14], the inhibition at 25 µM came out at 50.2%. The inhibition at 50 µM under setting [16] was 65.5%. This compound displayed an inhibition at 100 µM under setting [18] of 80%. The same compound yielded an inhibition at 200 µM under setting [20] of 90.1%.
Regarding `CC[C@H](C)[C@H](NC(=O)[C@H](CC(C)C)NC(=O)[C@@H]1CCCN1C(=O)[C@H](CCSC)NC(=O)[C@@H]1CCC(=O)N1)C(=O)N1CCC[C@H]1C(=O)N[C@@H](CCCNC(=N)N)C(=O)N[C@@H](C)C(=O)N[C@@H](CO)C(=O)N[C@@H](CC(=O)O)C(=O)N[C@@H](CCC(=O)O)C(=O)N[C@@H](CC(N)=O)C(=O)N[C@H](C(=O)N1CCC[C@H]1C(=O)N1CCC[C@H]1C(=O)O)C(C)C` [Peptide S682] ([pGlu]MPLIPRASDENVPP-OH), the half-maximal inhibitory concentration (IC50) is 150 µM.
Regarding `CC(C)C[C@H](NC(=O)[C@@H]1CCCN1C(=O)[C@@H](N)CO)C(=O)N1CCC[C@H]1C(=O)N[C@@H](CCC(=O)O)C(=O)N[C@H](C(=O)N1CCC[C@H]1C(=O)N1CCC[C@H]1C(=O)O)C(C)C` [Peptide S547], under setting [1], the IC50 came out at 27 µM. In addition, the “fluorescence reading (ACE Inhibitor Assay)” value reads like this: under setting [2], 968576 and 976911 and 1033152 and 933502; under setting [4], 935415 and 959358 and 928034 and 939702; under setting [6], 885259 and 942952 and 905782 and 900439; under setting [8], 853233 and 874120 and 919377 and 814056; under setting [10], 737068 and 749780 and 773384 and 715138; under setting [12], 661504 and 674042 and 682861 and 660883. Moreover, the “fluorescence reading (ACE Inhibitor Assay)” value under setting [14] is 561516 and 529553 and 559590 and 501835; the “fluorescence reading (ACE Inhibitor Assay)” value under setting [16] was 367055 and 382045 and 460226 and 346051; the “fluorescence reading (ACE Inhibitor Assay)” value under setting [18] is 229409 and 229360 and 232610 and 214324; the “fluorescence reading (ACE Inhibitor Assay)” value under setting [20] was 115847 and 125213 and 123605 and 113488. In addition, the “% inhibition (ACE Inhibitor Assay)” value under setting [3] is 6.82% and 6.02% and 0.575% and 10.22%; the “% inhibition (ACE Inhibitor Assay)” value under setting [5] is 7.72% and 10.75% and 9.62%; the “% inhibition (ACE Inhibitor Assay)” value under setting [7] is 9.3% and 12.9% and 13.42%; the “% inhibition (ACE Inhibitor Assay)” value under setting [9] was 15.96% and 11.6% and 21.78%; the “% inhibition (ACE Inhibitor Assay)” value under setting [11] is 28% and 25.72% and 31.35%; the “% inhibition (ACE Inhibitor Assay)” value under setting [13] is 35.33% and 34.48% and 36.6%. For the same compound, the “% inhibition (ACE Inhibitor Assay)” value under setting [15] was 49.3% and 46.4% and 52%; the “% inhibition (ACE Inhibitor Assay)” value under setting [17] is 63.59% and 56.02% and 67.07%; the “% inhibition (ACE Inhibitor Assay)” value under setting [19] is 78.05% and 79.82%; the “% inhibition (ACE Inhibitor Assay)” value under setting [21] was 88.45% and 88.6% and 89.58%. Besides, under setting [4], testing at 0.78125 µM gave an inhibition of 10%. Moreover, under setting [6], the inhibition at 1.5625 µM amounted to 14.9%. The inhibition at 3.125 µM under setting [8] worked out at 18%. Under setting [10], the inhibition at 6.25 µM stood at 29.2%. Under setting [12], this compound gave an inhibition at 12.5 µM of 36.5%. Also, under setting [14], the inhibition at 25 µM amounted to 46.2%. The compound further displayed an inhibition at 50 µM under setting [16] of 65%. Under setting [18], this compound had an inhibition at 100 µM of 78.4%. The compound also came in with an inhibition at 200 µM under setting [20] of 89.4%.
